The values that follow come from publication PMC6338836, “Structural basis for prodrug recognition by the SLC15 family of proton-coupled peptide transporters” (Proceedings of the National Academy of Sciences of the …, 2019).

In one data set the test system is PepTSh N167A. In words: IC50 competition assay, PepTSh N167A variant. It counts as biochemical, Staphylococcus hominis.
Another data set concerns PepT1. Also on record: method as in PMID 12649372. Conditions: cited from earlier work.
For a further data set, the target named is (UniProt Z9YNX0M2M8). In words: IC50 competition assay, PepTSh WT proteoliposomes. It counts as biochemical, Staphylococcus hominis. The conditions noted are these: competition for dipeptide uptake.
Another data set relates to PepTSh. In words: IC50 competition assay, PepTSh WT proteoliposomes. Type of data set: biochemical, Staphylococcus hominis. The conditions noted are these: for recognition: competition with AlaAla: N- or C-terminally blocked peptides.
For the next data set, the system named is PepTSh Y79F. In words: IC50 competition assay, PepTSh Y79F variant. Type of data set: biochemical, Staphylococcus hominis.
The next data set relates to PepTSh Y41F. In words: IC50 competition assay, PepTSh Y41F variant. Type of data set: biochemical, Staphylococcus hominis. Conditions: for pIC50: PepTSh variant Y41F.
On the set-up of data set [1]: method as in PMID 23264448, PMID 9610386. The conditions noted are these: cited from earlier work.
Another data set has as its system PepTSh N426A. In words: IC50 competition assay, PepTSh N426A variant. It counts as biochemical, Staphylococcus hominis. The conditions noted are these: PepTSh N426 removed (N426A).
In the next data set the test system is PepTSh N426L. In words: IC50 competition assay, PepTSh N426L variant. Type of data set: biochemical, Staphylococcus hominis. The conditions noted are these: PepTSh N426 replaced with leucine (N426L).
A further data set relates to PepTSh Y163A. In words: IC50 competition assay, PepTSh Y163A variant. Conditions: PepTSh Y163 removed (Y163A). It counts as biochemical, Staphylococcus hominis.
A further data set relates to PepTSh Y41A. In words: IC50 competition assay, PepTSh Y41A variant. Type of data set: biochemical, Staphylococcus hominis. Conditions: PepTSh Y41 removed (Y41A).

pIC50: −log10 of the molar value. Residues, ends and D or L forms follow the SMILES beside them.

For orientation: pIC50 means the IC50 on a negative log10 scale, so that one unit is a factor of ten. With `NCC(=O)CCC(=O)O` [5-aminolevulinic acid], the “effect of variant on affinity / IC50 compared with WT” value in the data set with PepTSh N167A is on record as “unchanged”. For the same compound, the pIC50 with PepT1 is 2.68; at (UniProt Z9YNX0M2M8), 1.98.

For `CC(=O)N[C@@H](C)C(=O)N[C@@H](C)C(=O)O` [Ac-AA-OH] (Ac-Ala-Ala-OH), in the data set on PepTSh, the “recognition: competition with AlaAla” value is reported as “can no longer bind the”.

Take `C[C@H](N)C(=O)N[C@@H](C)C(=O)O` [Ala-Ala, dialanine] (H-Ala-Ala-OH): the “effect of variant on transport compared with WT” value in the data set with PepTSh Y79F (PepTSh Y79F) was “limited effect”. In the data set with PepTSh Y41F, this compound showed a pIC50 of 3.06.

As to `C[C@H](N)C(=O)N[C@@H](C)C(=O)N[C@@H](C)C(=O)O` [Ala-Ala-Ala, trialanine], the pIC50 in the data set on PepTSh Y79F (PepTSh variant Y79F) was 5.28. Further, the “effect of variant on IC50 compared with WT” value in the data set with PepTSh Y41F (PepTSh Y41F) is reported as “no effect”.

`C[C@H](N)C(=O)N[C@@H](C)C(N)=O` [H-AA-NH2] (H-Ala-Ala-NH2): the “recognition: competition with AlaAla” value in the data set with PepTSh is listed as “can compete with AlaAla”.

In the case of `Nc1nc2c(ncn2COCCO)c(=O)[nH]1` [acyclovir], the oral bioavailability in [1] is 15%.

Consider `CC(C)[C@H](N)C(=O)OCCOCn1cnc2c(=O)[nH]c(N)nc21` [valacyclovir], for which the oral bioavailability in data set [1] was greater than 50%. Further, the “effect of variant on affinity / IC50 compared with WT” value with PepTSh N167A is “little effect on the affinity”. Besides, the results for the “effect of variant on affinity compared with WT” value in the data set with PepTSh N426A, with PepTSh N426L and in the data set on PepTSh Y41A were “improved affinity”, “negligible effect” and “little effect on the affinity”, respectively. Also, the pIC50 was 2.89 in the data set with PepTSh Y41F and 2.13 in the data set with PepTSh (competition for dipeptide uptake). Also, in the data set on PepTSh Y163A, the “effect of variant on recognition” value was “abrogated valacyclovir recognition”.
